# Key:
# [1] = system: ROS generated by vascular endothelial cells (YPEN-1); assay: In vitro ROS scavenging activity assay (DCFDA) in YPEN-1 vascular endothelial cells; assay type: cell-based, rat; conditions: YPEN-1 cells pre-treated with 50 μM SIN-1 for 1 hour; DCFDA fluorescence; compared with trolox (positive control); FIGS. 1 to 3
# Protocol: YPEN-1 cells (rat prostatic endothelial cell line) was obtained from American type culture collection (ATCC, Manassas, Va., USA), and the cells were cultured by using a dulbecco's modified eagle medium (DMEM, Nissui, Tokyo, Japan) containing 2 mM L-glutamine, […], 2.5 mg/L amphotericin B, and 5% inactivated fetal bovine serum (FBS). Also, the cells were maintained at a temperature of 37° C. in a humid atmosphere-like condition containing 5% CO2 and 95% air. […] The cells were sub-cultured in 100 mm plastic flask (Corning Co., New York, USA) every two days to maintain the cell line.
# Since the oil-soluble DCFDA was deacetylated into non-fluorescent DCFH due to esterase or oxidative hydrolysis and the DCFH was oxidized due to activity oxgyen to produce highly-fluorescent 2′,7′-dichlorofluorescein (DCF), the present measurement was performed at an excitation wavelength of 485 nm and an emission wavelength of 530 nm by using a fluorophotometer (GENios, TECAN). Vascular endothelial cells that were pre-treated with 50 μM 3-morpholinosydnonimine hydrochloride (SIN-1) for 1 hour were used as a reactive oxygen generation source.
# [2] = system: Mushroom-derived tyrosinase; assay: Tyrosinase inhibitory effect; assay type: biochemical; conditions: 1 mM L-tyrosin, pH 6.5, 25° C., 30 minutes, OD492; compared with kojic acid (positive control); FIGS. 4 to 6
# Protocol: Mushroom-derived tyrosinase was sued as an enzyme source in the present experiment. Tyrosinase activities were assayed according to a slightly-modified conventionally known method (Life Sci., 1999, 65, 241-246). In detail, 20 μl of a mushroom-derived tyrosinase (1000 units) aqueous solution was added to 96-well microplate (Nunc, Denmark) to prepare 200 μl of the total volume of assay mixture containing 1 mM L-tyrosin solution and 50 mM phosphate buffer solution (pH 6.5). The assay mixture was cultured at a temperature of 25° C. for 30 minutes. After the culturing, an amount of the produced DOPA chrome in the reaction mixture was measured by using a microplate reader (Hewlett Packard) at 492 nm (OD492).
# male Balb/c mouse = assay: Toxicity test, single oral administration; assay type: in vivo; conditions: single oral dose 0.5, 1 and 2 g/kg in 0.5% methylcellulose, observed 7 days
# Protocol: A suspension of each of Compound 3, Compound 15, Compound 50, Compound 85, Compound 93, and Compound 115 in a 0.5% methylcellulose solution was orally administered once to a male Balb/c mouse in dosages of 0.5 g/kg, 1 g/kg, and 2 g/kg, and then the survival rate and body weight of the mouse was recorded for 7 days.
# After the administration, whether the mouse died, clinical symptoms occurred, and body weight changed were identified and hematologic examination and blood biochemical examination were performed, and autopsy was performed to identify with naked eyes states of abdominal cavity organs and thoracic cavity organs.
Structure (SMILES),scavenging effects on ROS generated by vascular endothelial cells [1],tyrosinase inhibitory activities [2],melting point [°C],death and clinical symptoms (male Balb/c mouse),"toxicity change (body weight change, hematologic examination, blood biochemical examination, autopsy) (male Balb/c mouse)"
"COc1cc(/C=C2\NC(=S)NC2=O)ccc1O [Compound 101, (Z)-5-(4-hydroxy-3-methoxybenzylidene)-2-thioxoimidazolidin-4-one]",as high scavenging effects on ROS generated by vascular endothelial cells as trolox,–,–,–,–
"COc1ccc(/C=C2\SC(=S)NC2=O)cc1O [Compound 66, (Z)-5-(3-hydroxy-4-methoxybenzylidene)-2-thioxothiazolidin-4-one]",–,better tyrosinase inhibitory activities than a kojic acid,210.2 to 212.5,–,–
"O=C1C/C(=C\c2ccc(O)cc2)C(=O)N1 [Compound 36, (E)-3-(4-hydroxybenzylidene)pyrrolidine-2,5-dione]",–,better tyrosinase inhibitory activities than a kojic acid,> 300,–,–
"COc1ccc(/C=C2\NC(=S)NC2=O)cc1O [Compound 103, (Z)-5-(3-hydroxy-4-methoxybenzylidene)-2-thioxoimidazolidin-4-one]",–,better tyrosinase inhibitory activities than a kojic acid,279.6 to 282.2,–,–
"COc1ccc(/C=C2\CC(=O)NC2=O)cc1O [Compound 41, (E)-3-(3-hydroxy-4-methoxybenzylidene)pyrrolidine-2,5-dione]",–,better tyrosinase inhibitory activities than a kojic acid,268.7 to 270.3,–,–
"O=C1NC(=O)/C(=C/c2ccc(O)c(O)c2)N1 [Compound 26, (Z)-5-(3,4-dihydroxybenzylidene)imidazolidine-2,4-dione]",as high scavenging effects on ROS generated by vascular endothelial cells as trolox,–,> 300,–,–
"O=C1NC(=O)/C(=C/c2ccc(O)cc2O)S1 [Compound 3, (Z)-5-(2,4-dihydroxybenzylidene)thiazolidine-2,4-dione]",–,better tyrosinase inhibitory activities than a kojic acid,–,neither had distinctive clinical symptoms nor died,toxicity change was not identified
"O=C1NC(=O)/C(=C/c2ccc(O)c(O)c2)S1 [Compound 2, (Z)-5-(3,4-dihydroxybenzylidene)thiazolidine-2,4-dione]",as high scavenging effects on ROS generated by vascular endothelial cells as trolox,–,> 300,–,–
"O=C1NC(=S)N/C1=C\c1ccc(O)c(O)c1 [Compound 99, (Z)-5-(3,4-dihydroxybenzylidene)-2-thioxoimidazolidin-4-one]",as high scavenging effects on ROS generated by vascular endothelial cells as trolox,–,> 300,–,–
"O=C1NC(=O)C(=Cc2ccc(O)c(O)c2)C(=O)N1 [Compound 15, 5-(3,4-dihydroxybenzylidene)pyrimidine-2,4,6(1H,3H,5H)-trione]",as high scavenging effects on ROS generated by vascular endothelial cells as trolox,better tyrosinase inhibitory activities than a kojic acid,–,neither had distinctive clinical symptoms nor died,toxicity change was not identified
"COc1cc(/C=C2\NC(=S)NC2=O)cc(OC)c1O [Compound 110, (Z)-5-(4-hydroxy-3,5-dimethoxybenzylidene)-2-thioxoimidazolidin-4-one]",as high scavenging effects on ROS generated by vascular endothelial cells as trolox,–,240.1 to 242.6,–,–
"O=C1C/C(=C\c2ccc(O)cc2O)C(=O)N1 [Compound 38, (E)-3-(2,4-dihydroxybenzylidene)pyrrolidine-2,5-dione]",–,better tyrosinase inhibitory activities than a kojic acid,> 300,–,–
"O=C1NC(=S)N/C1=C\c1cc(O)cc(O)c1 [Compound 106, (Z)-5-(3,5-dihydroxybenzylidene)-2-thioxoimidazolidin-4-one]",as high scavenging effects on ROS generated by vascular endothelial cells as trolox,–,> 300,–,–
"O=C1C/C(=C\c2ccc(O)c(O)c2)C(=O)N1 [Compound 37, (E)-3-(3,4-dihydroxybenzylidene)pyrrolidine-2,5-dione]",as high scavenging effects on ROS generated by vascular endothelial cells as trolox,–,290.8 to 291.9,–,–
"[H]/N=C1/NC(=O)C(=Cc2ccc(O)c(O)c2)N1C [Compound 75, (Z)-5-(3,4-dihydroxybenzylidene)-2-imino-1-methylimidazolidin-4-one]",as high scavenging effects on ROS generated by vascular endothelial cells as trolox,–,293 to 295.3,–,–
"COc1cc(/C=C2\N=C(C)OC2=O)cc(OC)c1OC(C)=O [Compound 95, (Z)-2,6-dimethoxy-4-((2-methyl-5-oxooxazol-4(5H)-ylidene)methyl)phenyl acetate]",as high scavenging effects on ROS generated by vascular endothelial cells as trolox,–,–,–,–
"O=C1NC(=S)N/C1=C\c1ccc(O)cc1O [Compound 100, (Z)-5-(2,4-dihydroxybenzylidene)-2-thioxoimidazolidin-4-one]",as high scavenging effects on ROS generated by vascular endothelial cells as trolox,–,> 300,–,–
"CCOc1cc(/C=C2\NC(=S)NC2=O)ccc1O [Compound 102, (Z)-5-(3-ethoxy-4-hydroxybenzylidene)-2-thioxoimidazolidin-4-one]",as high scavenging effects on ROS generated by vascular endothelial cells as trolox,–,175.4 to 177.2,–,–
"COc1ccc(/C=C2\SC(=O)NC2=O)cc1O [Compound 6, (Z)-5-(3-hydroxy-4-methoxybenzylidene)thiazolidine-2,4-dione]",–,better tyrosinase inhibitory activities than a kojic acid,254 to 257.6,–,–
"COc1ccc(/C=C2\NC(=O)NC2=O)cc1O [Compound 29, (Z)-5-(3-hydroxy-4-methoxybenzylidene)imidazolidine-2,4-dione]",–,better tyrosinase inhibitory activities than a kojic acid,250.7 to 253.4,–,–
"O=C1NC(=S)NC(=O)C1=Cc1ccc(O)c(O)c1 [Compound 50, 5-(3,4-dihydroxybenzylidene)-2-thioxodihydropyrimidine-4,6(1H,5H)-dione]",as high scavenging effects on ROS generated by vascular endothelial cells as trolox,better tyrosinase inhibitory activities than a kojic acid,–,neither had distinctive clinical symptoms nor died,toxicity change was not identified
"O=C1NC(=O)C(=Cc2ccc(O)cc2O)C(=O)N1 [Compound 16, 5-(2,4-dihyroxybenzylidene)pyrimidine-2,4,6(1H,3H,5H)-trione]",–,better tyrosinase inhibitory activities than a kojic acid,–,–,–

# From US9896421B2, “Compound having skin-whitening, anti-oxidizing and PPAR activities and medical use thereof” (Pusan National University Industry-University Cooperation …, priority 2011, dated 2018)
